Experimental data taken from patent US8383136B2, “Micelle encapsulation of therapeutic agents” (Wisconsin Alumni Research Foundation, priority 2009, dated 2013).
Values after ≈ are worked out from the molar mass of the structure shown. Values joined by “and” are separate entries in the source; they are usually repeats but may differ in a detail not shown here. Equal entries are not always repeated. Where two headings read alike, the source gives them in different places. Blank lines part the entries; values can stand above or below the molecule they belong to.

Columns and labels:
[1] = % drug loading of PEG-b-PLA micelles (wt drug(s)/wt polymer); format: physicochemical; conditions: all drugs of the SDM or MDM together, PEG-b-PLA (4.2K:1.9K) micelles
Method: Drug(s) to polymer w/w percent was calculated for SDM and MDM. PEG-b-PLA micelles were freeze dried, weighed and the amount of drug(s) in the freeze dried sample was quantified by HPLC. The drug w/w percent was calculated as the mass of the drug(s) to the mass of polymer in the freeze dried sample multiplied by 100.

[2] = Dynamic light scattering size of SDM and MDM; format: physicochemical; conditions: DLS, drug-loaded SDM or MDM
Method: The drug-loaded micellar solutions were diluted 20 times with DD H2O and the samples was equilibrated for 2 min at 25° C. before the measurements. […] The hydrodynamic diameter of PEG-b-PLA micelles was calculated based on the Stokes-Einstein equation. Correlation function was curve fitted by cumulant method to calculate mean size and polydispersion index (PDI). All measurements were repeated three times, and volume-weighted particle sizes were presented as the average diameter with standard deviation.

[3] = Physical stability / drug loss from PEG-b-PLA micelles after 24 hours (turbidity, HPLC); format: physicochemical; conditions: for initial drug level in water / drug level @ 24 hr in water / % w/w drug(s) left @ 24 hr: PEG-b-PLA micelles; for drug precipitated at 24 hours: SDM, HPLC data; for time the micelles were physically stable: turbidity, ambient temperature
Method: Turbidity measurements were used to evaluate the physical stability of drug-loaded PEG-b-PLA micelles. A CARY 50 BIO UV-Visible spectrophotometer equipped with dip probe was used to measure turbidity. Micellar solutions were diluted six times, for a final concentration of PEG-b-PLA of 5 mg/mL, with DD H2O and filtered through 0.45 μm filter. […] Each measurement was performed in triplicate.

[4] = In vitro drug release from PEG-b-PLA micelles (dialysis method); format: physicochemical; conditions: 12.5 mM PBS, pH=7.4, 37° C.
Method: (§1) SDMs or MDMs were prepared and characterized as described above. Post micelle preparation each sample was diluted with DD H2O, to yield about 0.10 mg/mL of each drug. A volume of 2.5 mL of the prepared sample was loaded into a 3 mL Slide-A-Lyzer® (Thermo Scientific Inc.) dialysis cassette with a MWCO of 20,000 g/mol. Four cassettes were used in each experiment. The cassettes were placed in 2.0 L of buffer which was changed every 3 hours to ensure sink conditions for drug(s) and polymer. A sample of 100 μL was drawn from each cassette at various sampling time intervals and then replaced with 100 μL of fresh buffer. […] The amount of drug(s) in each sample was quantified by HPLC as described above.
Statistical analysis was performed using one-way ANOVA at 5% significance level combined with Tukey's Multiple Comparison Test or t-test at 5% significance level. Curve-fitting analysis using one phase exponential association was used to calculate the half-life (t1/2) of drug in in vitro drug release experiments. Both analyses were performed using GraphPad Prism version 5.00 for Windows, Graph-Pad Software, San Diego Calif. USA, www.graphpad.com.
as §1, with “Post-micelle preparation,” for “Post micelle preparation”, “yield samples of” for “yield”, “reverse phase HPLC.” for “HPLC as described above.”

[5] = tested on: A549 human non-small cell lung cancer cells; assay: In vitro cytotoxicity, resazurin assay, and combination index; format: cell-based; conditions: drug(s) in SDM or MDM, 72 hours, unit inferred
Method: (§2) MCF-7 human breast cancer cells were cultured in DMEM medium while 4T1 murine breast cancer cells, A549 human non-small cell lung cancer cells, and LS180 human colon cancer cells were cultured in RPMI1640 medium. Both media were supplemented with 10% fetal bovine serum (FBS) with antibiotics under 5% CO2 and 37° C. in an incubator. […] Free drugs were dissolved in DMSO, and drug-loaded PEG-b-PLA micelles were in deionized water. The samples were diluted with cell culture media to make 0.10, 1.0, 10, 100 and 1000 nM in 96 well plates. […] The metabolic conversion of resazurin dye by each viable cancer cell was quantified using a fluorescence cell plate reader (SpectraMax M2, Molecular Devices, USA) to estimate cell viability. […] IC50 values of free drugs and drug-loaded PEG-b-PLA micelles were calculated based on median-effect equation using Compusyn software (ver. 1.0).
(§3) CI values were obtained at IC50 values for 2- or 3-drug combinations. CI<1, C=1, and CI>1 were used as criteria to determine whether 2- or 3-drug combinations are synergistic, additive, and antagonistic, respectively (FIGS. 13-20).

[6] = tested on: MCF-7 human breast cancer cells; assay: as above; format: cell-based; conditions: MCF-7, drug(s) in SDM or MDM (PEG-b-PLA micelles), 72 hours, nM printed in b258 only, PTX/17-AAG 3.2:1, RAP/17-AAG 1:1, RAP/PTX 1:1, RAP/PTX/17-AAG 1:5:1
Method: as §2, §3

[7] = tested on: 4T1 murine breast cancer cells; assay: as above; format: cell-based; conditions: drug(s) in SDM or MDM, 72 hours, unit inferred
Method: as §2, with “The samples were diluted with cell culture media to make 0.10, 1.0, 10, 100 and 1000 nM in 96 well plates.” left out
as §3

physchem = format: physicochemical
Method: The mixture is mixed and sonicated for five minutes. The solvent is then removed by rotoevaporation at approximately 60° C. to provide a film. Hot (˜60° C.) deionized water is added to the oil and the solution is allowed to cool to ˜23° C. The solution is then centrifuged to remove the sediment in a 1.5 mL microtube, at ˜13,200 rpm for 1 minute. The supernatant is collected and filtered through a 0.2 μm PTFE filter.
The resulting solution was dialyzed against H2O in 3500 MWCO tubing (SpectraPor). Resulting micelles were centrifuged at 5000g's for 10 minutes to precipitate unincorporated drug. […] Micelle solutions were concentrated by rotary evaporation under reduced pressure at room temperature, followed by centrifugation (5000g's for 10 minutes).

[8] = format: in vivo, rats; conditions: micelle formulation compared to the standard vehicle that employs CrEL
[9] = dogs; cited from earlier work
[10] = Drug solubilization by PEG-b-PLA micelles (drug level in water, reverse phase HPLC); conditions: SDM or MDM, PEG-b-PLA (4.2K:1.9K) micelles
Method: The drug-polymer mixture was dissolved in 0.50 mL acetonitrile (ACN). The ACN was removed at 60° C. under reduced pressure on a rotary evaporator resulting in the formation of a homogenous film, The drug-polymer film was rehydrated with 0.50 mL of DD H2O at 60° C. with gentle agitation resulting in a clear solution of drug-loaded PEG-b-PLA micelles. The micellar solution was filtered using a 0.45 μm filter, and the micelles were characterized in terms of size and loading by Dynamic Light Scattering (DLS) and HPLC respectively.
MDMS were prepared similarly to the SDMs by mixing 2.0 mg of each drug with 15 mg of the polymer. The procedure for the preparation and characterization of these micelles was identical to the SDMs.
The content of drug loaded in PEG-b-PLA micelles was quantified by reverse phase HPLC. The HPLC system used for quantifying was a Shimadzu prominence HPLC system (Shimadzu, JP), consisting of a LC-20AT pump, SIL-20AC HT autosampler, CTO-20AC column oven and a SPD-M20A diode array detector. A sample of 10 μL was injected into a Zorbax SB-C8 Rapid Resolution cartridge (4.6×75 mm, 3.5 micron, Agilent). The column temperature was maintained at 40° C. throughout the run. Two HPLC methods were developed to quantify the amount of the drug(s) loaded in PEG-b-PLA micelles.
The mobile phase was an isocratic mixture of 45% ACN and 54% aqueous phase containing 0.1% phosphoric acid and 1% methanol in DD H2O.
The mobile phase was a gradient mixture of ACN and aqueous phase containing 0.1% phosphoric acid and 1% methanol in DD H2O. […] With both HPLC methods samples were injected twice and reproducible and rapid separation of the drugs was achieved.
Mn of PEG and PLA of PEG-b-PLA was 4,200 and 1,900 g/mol, respectively (APC Inc., UK). ACN was removed by heating at 60° C. and reduced pressure. The resultant dry polymer film containing anti-cancer agent(s) was dissolved by addition of water (0.50 mL) at 60° C. with gentle agitation.
The resultant dry PEG-b-PLA film containing drugs was dissolved by the addition of water (0.50 mL) at 60° C. with gentle agitation.

[11] = drug without micelles; cited from earlier work
[12] = tested on: pediatric acute lymphoblastic leukemia cell lines; conditions: combination of 17-AAG and ETO, four cell lines; cited from earlier work
[13] = Solubilization with Poloxamer F68 (reference example); format: physicochemical; conditions: analyte rapamycin
Source text: Several polymers that form micelles with drugs were surveyed for solubilizing a paclitaxel-rapamycin-17-AAG drug combination. […] For example, the PEG-PPG-PEG triblock polymer Poloxamer F68 is useful to solubilize many hydrophobic compounds such as resveratrol, a hydrophobic compound with reported anticancer activity. […] In these attempts, the micelles coagulated and deteriorated in aqueous solutions.
Results for forming micelles of the paclitaxel-rapamcyin-17-AAG combination with Poloxamer F68: […]

[14] = PTX/17-AAG 4.7:1, RAP/17-AAG 1:1, RAP/PTX 1:1, RAP/PTX/17-AAG 1:5:1
[15] = PTX/17-AAG 4.7:1, RAP/17-AAG 1:1, RAP/PTX 1:1, RAP/PTX/17-AAG 1:5:1, read-out: IC50

Compound: C=CCNC1=C2C[C@@H](C)C[C@H](OC)[C@H](O)[C@@H](C)/C=C(\C)[C@H](OC(N)=O)[C@@H](OC)/C=C\C=C(/C)C(=O)NC(=CC1=O)C2=O [17-AAG, 17-allylamino-17-demethoxygeldanamycin]
% drug loading (wt. drug(s)/wt. polymer) [1]: 13.0 ± 0.9% and 11.3 ± 0.3%
PEG-b-PLA micelle diameter [2]: 39.3 ± 2.9 nm
initial drug level in water ([3]; analyte 17-AAG): 3.90 ± 0.28 mg/mL
drug level @ 24 hr in water ([3]; analyte 17-AAG): 3840 ± 180 µg/mL
first-order rate constant ([4]; release of 17-AAG): 0.525 h⁻¹
IC50 [5, 14]: 771 ± 163 nM
IC50 [6]: 266 ± 48 nM
IC50 [7, 14]: 118 ± 10 nM
17-AAG solubilized (physchem; PEG-PLA (12:6 kDa) micelles): 1.5 mg/mL
solubility (physchem; PEG-PLA (12:6 kDa) micelles in water, aqueous with cosolvent or surfactant or cyclodextrin): ~1500 µg/mL (≈ 2560 µM)
Renal clearance (CLrenal) [8]: increased
hepatic clearance (CLhepatic) [8]: decreased
maximum tolerated dose [9]: 100-200 mg/m^2/day
drug level in water ([10]; analyte 17-AAG): 3900 ± 280 µg/mL

Compound: CO[C@H]1/C=C\C=C(/C)C(=O)NC2=CC(=O)C(NCCN(C)C)=C(C[C@@H](C)C[C@H](OC)[C@H](O)[C@@H](C)/C=C(\C)[C@@H]1OC(N)=O)C2=O [17-DMAG, 17-dimethylamino-ethylamino-17-demethoxygeldanamycin]
maximum tolerated dose [9]: 8 mg/m^2/day

% drug loading (wt. drug(s)/wt. polymer) [1]: 14.2 ± 1.5% and 11.5 ± 0.5%
% drug loading (wt. drug(s)/wt. polymer) ([1]; listed as DCTX): 11.5%
PEG-b-PLA micelle diameter [2]: 37.3 ± 1.7 nm
drug precipitated at 24 hours [3]: ~73%
% w/w drug(s) left @ 24 hr ([3]; analyte docetaxel): 26.8 ± 3.3 % w/w
initial drug level in water ([3]; analyte docetaxel): 4.27 ± 0.44 mg/mL
drug level @ 24 hr in water ([3]; analyte docetaxel): 1140 ± 30 µg/mL
time the micelles were physically stable [3]: approximately 6 hours
drug level in water ([10]; analyte docetaxel): 4270 ± 440 µg/mL
drug level in water ([10]; analyte docetaxel, listed as DCTX): 4270 µg/mL
Compound: CC(=O)O[C@@]12CO[C@@H]1C[C@H](O)[C@@]1(C)C(=O)[C@H](O)C3=C(C)[C@@H](OC(=O)[C@H](O)[C@@H](NC(=O)OC(C)(C)C)c4ccccc4)C[C@@](O)([C@@H](OC(=O)c4ccccc4)[C@H]21)C3(C)C [Docetaxel]
first-order rate constant ([4]; release of docetaxel): 0.379 h⁻¹
intrinsic solubility in water [11]: 5.5 µg/mL

% drug loading (wt. drug(s)/wt. polymer) [1]: 11.0 ± 0.5%
% drug loading (wt. drug(s)/wt. polymer) ([1]; listed as ETO): 9.6%
PEG-b-PLA micelle diameter [2]: 32.6 ± 1.0 nm
drug precipitated at 24 hours [3]: ~68%
% w/w drug(s) left @ 24 hr ([3]; analyte etoposide): 32.3 ± 3.4 % w/w
initial drug level in water ([3]; analyte etoposide): 3.31 ± 0.15 mg/mL
drug level @ 24 hr in water ([3]; analyte etoposide): 1070 ± 160 µg/mL
time the micelles were physically stable [3]: approximately 6 hours
drug level in water ([10]; analyte etoposide): 3310 ± 150 µg/mL
Compound: COc1cc([C@@H]2c3cc4c(cc3[C@@H](O[C@@H]3O[C@@H]5CO[C@@H](C)O[C@H]5[C@H](O)[C@H]3O)[C@H]3COC(=O)[C@H]23)OCO4)cc(OC)c1O [Etoposide]
first-order rate constant ([4]; release of etoposide): 0.636 h⁻¹
intrinsic solubility in water [11]: 58 µg/mL
decrease of the IC50 of ETO [12]: 10 fold

% drug loading (wt. drug(s)/wt. polymer) [1]: 6.6 ± 1.3%
PEG-b-PLA micelle diameter [2]: 36.9 ± 1.3 nm
% w/w drug(s) left @ 24 hr ([3]; analyte rapamycin): 91.5 ± 0.2 % w/w
initial drug level in water ([3]; analyte rapamycin): 1.84 ± 0.26 mg/mL
drug level @ 24 hr in water ([3]; analyte rapamycin): 1680 ± 230 µg/mL
loading into micelles [13]: 4%
drug level in water ([10]; analyte rapamycin): 1840 ± 260 µg/mL
Compound: CO[C@H]1C[C@@H]2CC[C@@H](C)[C@@](O)(O2)C(=O)C(=O)N2CCCC[C@H]2C(=O)O[C@H]([C@H](C)C[C@@H]2CC[C@@H](O)[C@H](OC)C2)CC(=O)[C@H](C)/C=C(\C)[C@@H](O)[C@@H](OC)C(=O)[C@H](C)C[C@H](C)/C=C/C=C/C=C/1C [Rapamycin]
first-order rate constant ([4]; release of rapamycin): 0.100 h⁻¹ and 0.081 h⁻¹
IC50 [5, 15]: 590 ± 110 nM
IC50 ([6]; read-out: IC50): 255 ± 37 nM
IC50 [7, 15]: > 100000 nM
